Laboratory results: patent EP1263458B1, “LOWERING SERUM CHOLESTEROL” (NOVO NORDISK A/S, priority 2000, dated 2005)

System: Wistar rats subjected to neonatal monosodium glutamate treatment (MSG)
Assay: Acute and subchronic anorectic effects, plasma triglycerides, model of hypothalamic obesity (MSG rats)
Type: in vivo
Conditions: 100 µg/kg s.c. twice daily, rat group not specified
Method: Solutions were always made fresh approximately 1 hour prior to use and stored at 4°C in sterile tubes.

[1] = normalised within few days of treatment

Q: What does the source list for `CCCCCCCCCCCCCCCC(=O)N[C@@H](CCC(=O)NCCCC[C@H](NC(=O)[C@H](C)NC(=O)[C@H](C)NC(=O)[C@H](CCC(N)=O)NC(=O)CNC(=O)[C@H](CCC(=O)O)NC(=O)[C@H](CC(C)C)NC(=O)[C@H](Cc1ccc(O)cc1)NC(=O)[C@H](CO)NC(=O)[C@H](CO)NC(=O)[C@@H](NC(=O)[C@H](CC(=O)O)NC(=O)[C@H](CO)NC(=O)[C@@H](NC(=O)[C@H](Cc1ccccc1)NC(=O)[C@@H](NC(=O)CNC(=O)[C@H](CCC(=O)O)NC(=O)[C@H](C)NC(=O)[C@@H](N)Cc1cnc[nH]1)[C@@H](C)O)[C@@H](C)O)C(C)C)C(=O)N[C@@H](CCC(=O)O)C(=O)N[C@@H](Cc1ccccc1)C(=O)N[C@H](C(=O)N[C@@H](C)C(=O)N[C@@H](Cc1c[nH]c2ccccc12)C(=O)N[C@@H](CC(C)C)C(=O)N[C@H](C(=O)N[C@@H](CCCNC(=N)N)C(=O)NCC(=O)N[C@@H](CCCNC(=N)N)C(=O)NCC(=O)O)C(C)C)[C@@H](C)CC)C(=O)O` [GLP1, Arg^34, Lys^26(N^ε-(γ-Glu(N^α-hexadecanoyl)))-GLP-1(7-37)]?
A: diuresis [1]: increases; water intake [1]: Initial decreases; plasma parameters of renal function (throughout the experiment): remained normal
